From patent US8828985B2, “Carbamate and urea inhibitors of 11-beta-hydroxysteroid dehydrogenase 1” (Vitae Pharmaceuticals, Inc., priority 2008, dated 2014)
Like-named read-outs stand apart in the source and are kept apart here.

What was measured:
[1] = molecular target: T1, human 11β-HSD1 (Homo sapiens, UniProt P28845); conditions: for IC50: read-out: Biological Test Example 2 IC50 Range, microsomes from CHO cells overexpressing human 11β-HSD1, SPA
Procedure: (§1) All reactions are carried out at room temperature in 96 well clear flexible PET Microbeta plates (PerkinElmer). […] The reaction is stopped by adding 50 μl of the SPA beads suspension containing 10 μM 18β-glycyrrhetinic acid, 5 mg/ml protein A coated YSi SPA beads (GE Healthcare) and 3.3 μg/ml of anti-cortisol antibody (East Coast Biologics) in Superblock buffer (Bio-Rad). The plates are then shaken for 120 minutes at room temperature, and the SPA signal corresponding to [^3H]cortisol is measured on a Microbeta plate reader.

[2] = molecular target: T1, human 11β-HSD1; assay: biochemical; conditions: for IC50: Biological Test Example 2 IC50 Range, microsomes from CHO cells overexpressing human 11β-HSD1, SPA; for inhibition at 0.1 µM: 1.5 h, read-out: Biological Test Example 2 Average % inhibition at 100 nm, at 100 nm
Procedure: as §1

T1 sequence (P28845 whole entry): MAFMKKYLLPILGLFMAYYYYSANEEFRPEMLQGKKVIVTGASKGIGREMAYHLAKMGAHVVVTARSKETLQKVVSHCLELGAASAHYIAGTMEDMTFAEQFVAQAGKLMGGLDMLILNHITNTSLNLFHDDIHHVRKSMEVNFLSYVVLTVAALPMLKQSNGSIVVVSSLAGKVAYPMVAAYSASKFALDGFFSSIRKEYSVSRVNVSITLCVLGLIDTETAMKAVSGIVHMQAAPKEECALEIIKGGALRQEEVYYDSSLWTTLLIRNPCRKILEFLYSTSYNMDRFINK

Compound | Biological Test Example 2 Average % inhibition at 100 nm [1] [%] | IC50 [2] [nM] | IC50 [1] [nM] | Biological Test Example 2 Average % inhibition at 111 nm [1] [%] | inhibition at 0.1 µM [2] [%]
CC(C)(C)OC(=O)NCC1CN(C(=O)OC2C3CC4CC2CC(C(N)=O)(C4)C3)C1 (single isomer, unassigned) [Example 17 Isomer 1, (cis-1-carbamoyl-4-adamantyl) 3-((tert-butoxycarbonylamino)methyl)azetidine-1-carboxylate] | 22.1 | > 100 | – | – | –
CC(C)(C)OC(=O)NCC1CN(C(=O)OC2C3CC4CC2CC(C(N)=O)(C4)C3)C1 (single isomer, unassigned) [Example 17 Isomer 2, (trans-1-carbamoyl-4-adamantyl) 3-((tert-butoxycarbonylamino)methyl)azetidine-1-carboxylate] | 92.8 | < 100 | – | – | –
CC(C)COC(=O)NC1CCN(C(=O)OC2C3CC4CC2CC(C(N)=O)(C4)C3)C1 (single isomer, unassigned) [Example 18 Isomer 1, (cis-1-carbamoyl-4-adamantyl) (3R-(isobutoxycarbonylamino)pyrrolidine-1-carboxylate)] | 22.6 | > 100 | – | – | –
CC(C)COC(=O)NC1CCN(C(=O)OC2C3CC4CC2CC(C(N)=O)(C4)C3)C1 (single isomer, unassigned) [Example 18 Isomer 2, (trans-1-carbamoyl-4-adamantyl) (3R-(isobutoxycarbonylamino)pyrrolidine-1-carboxylate)] | 95.0 | < 100 | – | – | –
CC1(NC(=O)OC(C)(C)C)CCN(C(=O)OC2C3CC4CC2CC(C(N)=O)(C4)C3)C1 (single isomer, unassigned) [Example 22 Isomer 1, (cis-1-carbamoyl-4-adamantyl) 3-(tert-butoxycarbonylamino)-3-methylpyrrolidine-1-carboxylate] | 15.7 | > 100 | – | – | –
CC1(NC(=O)OC(C)(C)C)CCN(C(=O)OC2C3CC4CC2CC(C(N)=O)(C4)C3)C1 (single isomer, unassigned) [Example 22 Isomer 2, (trans-1-carbamoyl-4-adamantyl) 3-(tert-butoxycarbonylamino)-3-methylpyrrolidine-1-carboxylate] | 95.5 | < 100 | – | – | –
CC1(NC(=O)OC(C)(C)C)CCN(C(=O)OC2C3CC4CC2CC(C(N)=O)(C4)C3)C1 (single isomer, unassigned) [Example 22 Isomer 2.1, (trans-1-carbamoyl-4-adamantyl) 3-(tert-butoxycarbonylamino)-3-methylpyrrolidine-1-carboxylate] | 88.5 | < 100 | – | – | –
CC1(NC(=O)OC(C)(C)C)CCN(C(=O)OC2C3CC4CC2CC(C(N)=O)(C4)C3)C1 (single isomer, unassigned) [Example 22 Isomer 2.2, (trans-1-carbamoyl-4-adamantyl) 3-(tert-butoxycarbonylamino)-3-methylpyrrolidine-1-carboxylate] | 82.7 | < 100 | – | – | –
CC(C)(C)OC(=O)N1CCC2CN(C(=O)OC3C4CC5CC3CC(C(N)=O)(C5)C4)CC21 (single isomer, unassigned) [Example 23 Isomer 1, 1-tert-butyl 5-(cis-1-carbamoyl-4-adamantyl)hexahydropyrrolo[3,4-b]pyrrole-1,5-dicarboxylate] | 35.4 | > 100 | – | – | –
CC(C)(C)OC(=O)N1CCC2CN(C(=O)OC3C4CC5CC3CC(C(N)=O)(C5)C4)CC21 (single isomer, unassigned) [Example 23 Isomer 2, 1-tert-butyl 5-(trans-1-carbamoyl-4-adamantyl)hexahydropyrrolo[3,4-b]pyrrole-1,5-dicarboxylate] | 94.4 | < 100 | – | – | –
CC(C)OC(=O)N[C@@H]1CCN(C(=O)OC2C3CC4CC2CC(C(N)=O)(C4)C3)C1 (single isomer, unassigned) [Example 24 Isomer 1] | 2.0 | > 100 | – | – | –
CC(C)OC(=O)N[C@@H]1CCN(C(=O)OC2C3CC4CC2CC(C(N)=O)(C4)C3)C1 (single isomer, unassigned) [Example 24 Isomer 2] | 87.4 | < 100 | – | – | –
NC(=O)C12CC3CC(C1)C(OC(=O)N1CC[C@@H](NC(=O)OCc4ccccc4)C1)C(C3)C2 (single isomer, unassigned) [Example 25 Isomer 1] | 45.6 | > 100 | – | – | –
NC(=O)C12CC3CC(C1)C(OC(=O)N1CC[C@@H](NC(=O)OCc4ccccc4)C1)C(C3)C2 (single isomer, unassigned) [Example 25 Isomer 2] | 91.3 | < 100 | – | – | –
CC(C)(C)OC(=O)NC1(Cc2ccccc2)CCN(C(=O)OC2C3CC4CC2CC(C(N)=O)(C4)C3)C1 (single isomer, unassigned) [Example 29 Isomer 1, (cis-1-carbamoyl-4-adamantyl) 3-benzyl-3-(tert-butoxycarbonylamino)pyrrolidine-1-carboxylate] | 41.2 | > 100 | – | – | –
CC(C)(C)OC(=O)NC1(Cc2ccccc2)CCN(C(=O)OC2C3CC4CC2CC(C(N)=O)(C4)C3)C1 (single isomer, unassigned) [Example 29 Isomer 2, (trans-1-carbamoyl-4-adamantyl) 3-benzyl-3-(tert-butoxycarbonylamino)pyrrolidine-1-carboxylate] | 90.8 | < 100 | – | – | –

Compound | Biological Test Example 2 Average % inhibition at 100 nm [1] [%] | IC50 [2] [nM] | IC50 [1] [nM] | Biological Test Example 2 Average % inhibition at 111 nm [1] [%] | inhibition at 0.1 µM [2] [%]
CC(C)(C)OC(=O)NC1(Cc2ccccc2)CCN(C(=O)OC2C3CC4CC2CC(C(N)=O)(C4)C3)C1 (single isomer, unassigned) [Example 29 Isomer 2.1, (trans-1-carbamoyl-4-adamantyl) 3-benzyl-3-(tert-butoxycarbonylamino)pyrrolidine-1-carboxylate] | 96.9 | < 100 | – | – | –
CC(C)(C)OC(=O)NC1(Cc2ccccc2)CCN(C(=O)OC2C3CC4CC2CC(C(N)=O)(C4)C3)C1 (single isomer, unassigned) [Example 29 Isomer 2.2, (trans-1-carbamoyl-4-adamantyl) 3-benzyl-3-(tert-butoxycarbonylamino)pyrrolidine-1-carboxylate] | 89.3 | < 100 | – | – | –
CC(C)(C)OC(=O)N1CCCC12CCN(C(=O)OC1C3CC4CC1CC(C(N)=O)(C4)C3)C2 (single isomer, unassigned) [Example 30 Isomer 1, 1-tert-butyl 7-(cis-1-carbamoyl-4-adamantyl) 1,7-diazaspiro[4.4]nonane-1,7-dicarboxylate] | 15.9 | > 100 | – | – | –
CC(C)(C)OC(=O)N1CCCC12CCN(C(=O)OC1C3CC4CC1CC(C(N)=O)(C4)C3)C2 (single isomer, unassigned) [Example 30 Isomer 2, 1-tert-butyl 7-(trans-1-carbamoyl-4-adamantyl) 1,7-diazaspiro[4.4]nonane-1,7-dicarboxylate] | 91.3 | < 100 | – | – | –
NC(=O)C12CC3CC(C1)C(OC(=O)N1CC[C@@H](Nc4ncccn4)C1)C(C3)C2 (single isomer, unassigned) [Example 62 Isomer 1] | 40.8 | < 100 | – | – | –
NC(=O)C12CC3CC(C1)C(OC(=O)N1CC[C@@H](Nc4ncccn4)C1)C(C3)C2 (single isomer, unassigned) [Example 62 Isomer 2] | 78.7 | – | < 100 | – | –
N#Cc1ccc(N[C@@H]2CCN(C(=O)NC3CC4CCC(C3)N4C(N)=O)C2)nc1 (single isomer, unassigned) [Example 104 Isomer 1] | – | – | > 1000 | −6.2 | –
N#Cc1ccc(N[C@@H]2CCN(C(=O)NC3CC4CCC(C3)N4C(N)=O)C2)nc1 (single isomer, unassigned) [Example 104 Isomer 2] | – | – | > 1000 | −6.1 | –
CNC(=O)C12CC3CC(C1)C(OC(=O)N1CC[C@@H](Nc4ccc(C#N)cn4)C1)C(C3)C2 (single isomer, unassigned) [Example 114 Isomer 1] | 11.8 | > 100 | – | – | –
CNC(=O)C12CC3CC(C1)C(OC(=O)N1CC[C@@H](Nc4ccc(C#N)cn4)C1)C(C3)C2 (single isomer, unassigned) [Example 114 Isomer 2] | 58.4 | < 100 | – | – | –
N#Cc1ccc(N[C@@H]2CCN(C(=O)OC3C4CC5CC3CC(C(=O)NC3CCCCC3)(C5)C4)C2)nc1 (single isomer, unassigned) [Example 117 Isomer 1] | 17.85 | > 100 | – | – | –
N#Cc1ccc(N[C@@H]2CCN(C(=O)OC3C4CC5CC3CC(C(=O)NC3CC3)(C5)C4)C2)nc1 (single isomer, unassigned) [Example 118 Isomer 2] | 7.15 | – | > 100 | – | –
CC(C)(C)OC(=O)NC1(C(F)(F)F)CCN(C(=O)O[C@H]2C3CC4CC2C[C@](C(N)=O)(C4)C3)C1 (stereo partly drawn) [Example 113, (trans-1-carbamoyl-4-adamantyl) 3-(tert-butoxycarbonylamino)-3-(trifluoromethyl)pyrrolidine-1-carboxylate] | – | < 100 | – | – | 92
NC(=O)C12CC3CC(C1)C(OC(=O)N1CC[C@@H](Nc4ccc(F)cn4)C1)C(C3)C2 (some centres unmarked) [Example 115] | – | < 100 | – | – | 95.2
N#Cc1ccc(N[C@@H]2CCN(C(=O)O[C@H]3C4CC5CC3C[C@](C(N)=O)(C5)C4)C2)nn1 [Example 116, (R)-(trans-1-carbamoyl-4-adamantyl) 3-(6-cyanopyridazin-3-ylamino)pyrrolidine-1-carboxylate] | – | < 100 | – | – | 71.4
